In US5714508A, “Bicycle Derivatives of imidazole” (Roussel Uclaf, priority 1993, dated 1998) one finds IC50 and ED50 data, which are given here for three molecules.

One test deals with T1, angiotensin II receptor (Rattus norvegicus, UniProt P25095).
T1 construct: A fresh membrane preparation obtained from rat's liver was used; from tissue; host or cells: rat liver membranes
T1 sequence (P25095 1-359): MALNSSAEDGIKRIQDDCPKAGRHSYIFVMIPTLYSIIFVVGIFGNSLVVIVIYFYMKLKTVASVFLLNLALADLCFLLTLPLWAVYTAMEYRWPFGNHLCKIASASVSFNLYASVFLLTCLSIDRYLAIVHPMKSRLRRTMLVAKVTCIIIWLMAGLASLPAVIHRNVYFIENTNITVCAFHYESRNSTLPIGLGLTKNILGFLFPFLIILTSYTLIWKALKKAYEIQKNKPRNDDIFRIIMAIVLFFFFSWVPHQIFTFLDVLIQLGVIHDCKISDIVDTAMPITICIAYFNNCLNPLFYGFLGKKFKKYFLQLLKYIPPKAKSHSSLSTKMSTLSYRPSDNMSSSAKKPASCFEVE
The test can be described thus: Test on the angiotensin II receptor (displacement of 125I angiotensin II from rat liver membranes). Format: binding. To be noted: rat liver membrane preparation, 25° C., 150 minutes, Tris buffer pH 7.4, read-out: IC50 in Nanomoles. How it is done:
1--Test on the angiotensin II receptor
A fresh membrane preparation obtained from rat's liver was used and the tissue was ground up in a polytron in a 50 mM Tris buffer pH 7.4. The grinding process was followed by 3 centrifugations at 30,000 g for 15 minutes with intermediate taking up of the pellets in the Tris buffer pH 7.4. The last pellets were suspended in an incubation buffer (20 mM Tris, 135 mM NaCl, 10 mM KCl, 5 mM glucose, 10 mM MgCl2, 0.3 mM PMSF, 0.1 mM bacitracin, 0.2% BSA. 2 ml aliquoted fractions were distributed in hemolysis tubes and 125I angiotensin II (25,000 DPM/tube) and the product under test were added. The product was first tested at 3×10^-5 M three times. When the product tested displaced more than 50% of the radioactivity linked specifically to the receptor, it was tested again in a range of 7 concentrations to determine the concentration which inhibited 50% of the radioactivity linked specifically to the receptor. In this way, the 50% inhibiting concentration was determined.
The non-specific bond was determined by the addition of a product of Example 94 of European Patent No. 0,253,310 at 10^-5 M (three times). After incubation at 25° C. for 150 minutes, the suspension was put in a water-bath at 0° C. for 5 minutes, filtered under vacuum, rinsed with a Tris pH 7.4 buffer and the radioactivity was counted in the presence of scintillating Triton. The result was expressed directly as a 50% inhibiting concentration (IC50), that is to say the concentration of product studied, expressed in […], necessary to displace 50% of the specific radioactivity fixed to the receptor studied.
On the technique in general: Displacement assays read how much labelled ligand stays bound in the presence of the test substance.

A further test concerns angiotensin II. The test can be described thus: Test of the antagonistic activity of angiotensin II in a demedullated rat (diastolic arterial pressure). In kind it is in vivo, Male Sprague Dawley rats. To be noted: iv, venous route, injected 5 minutes before angiotensin II (0.75 micrograms/kg), pressure effects, read-out: 50% Inhibitory Doses. How it is done:
2--Test of the antagonistic activity of angiotensin II in a demedullated rat
Male Sprague Dawley rats weighing 250 to 350 g were anaesthetized by an intraperitoneal injection of sodium pentobarbital (60 mg/kg). The diastolic arterial pressure was recorded with a heparinated catheter (PE50) introduced into the left carotid of the animal and connected to a pressure processor (Gould, Pressure Processor) via a Gould pressure sensor. A catheter was introduced into the right jugular of the animal for the injection of the molecules to be studied. The animal was placed under assisted respiration and a bilateral section of the vagus nerves was carried out. The rat was then demedullated.
After a sufficient period of stabilization, study of the antagonism of the compound vis-a-vis angiotensin II (Hypertensin Ciba) was started in the following way.
1--Three consecutive injections of angiotensin II (0.75 micrograms/kg) spaced 15 minutes apart which allowed a reproducible and stable pressure response to be obtained. […]
The pressure effects of the angiotensin II in the presence of the antagonist were expressed as a percentage of the pressure effects of the angiotensin II administered alone. The 50% inhibitory dose of the studied effect was thus determined. […]

For orientation: IC50 means the concentration at which inhibition is half-maximal. On to `CCCCc1nc2c(n1Cc1ccc(-c3ccccc3S(=O)(=O)NC(=O)NCCC)cc1)C(=O)CCS2` [Example 3, 4'-[(2-butyl-6,7-dihydro-7-oxo-thiopyrano-(2,3-d)imidazol-1-(5H)-yl)-methyl]-N-[(propylamino)-carbonyl]-(1,1,'-biphenyl)-2-sulfonamide], for which the IC50 on angiotensin II receptor came to 1.3 nM. Moreover, in the test with angiotensin II, the ED50 is 0.08 mg/kg. The like results for `CCCCc1nc2c(n1Cc1ccc(-c3ccccc3S(=O)(=O)NC(=O)OCC)cc1)C(=O)CCS2` [Example 4] were, in that order, 0.2 nM and 0.09 mg/kg. On to `CCCCc1nc2c(n1Cc1ccc(-c3ccccc3S(=O)(=O)NC(=O)NCCC)cc1)C(=NO)CCS2` [Example 7, 4'-[(2-butyl-7-(hydroxyimino)-1,5,6,7-tetrahydro-thiopyrano[2,3-d)-imidazol-1-yl)-methyl]-N-[(propylamino)-carbonyl]-(1,1'-biphenyl)-2-sulfonamide], for which the IC50 at angiotensin II receptor is 5.3 nM.
